{"source": "patent US11306078B2", "about": "“Piperidine CXCR7 receptor modulators” (IDORSIA PHARMACEUTICALS LTD., priority 2016, dated 2022)", "biological_target": "human chemokine receptor CXCR7 (Homo sapiens (Human), UniProt P25106)", "sequence (P25106 whole entry)": "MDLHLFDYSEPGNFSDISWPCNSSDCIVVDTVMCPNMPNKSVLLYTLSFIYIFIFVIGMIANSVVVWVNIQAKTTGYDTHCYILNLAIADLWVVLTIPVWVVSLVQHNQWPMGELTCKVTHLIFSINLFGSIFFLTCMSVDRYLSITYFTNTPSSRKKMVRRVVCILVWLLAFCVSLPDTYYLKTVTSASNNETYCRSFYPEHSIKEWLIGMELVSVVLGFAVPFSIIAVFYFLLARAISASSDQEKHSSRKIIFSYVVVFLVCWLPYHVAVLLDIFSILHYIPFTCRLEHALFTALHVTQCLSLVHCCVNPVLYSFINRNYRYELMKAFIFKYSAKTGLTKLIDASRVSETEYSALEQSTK", "assay": "Tango CXCR7-bla U2OS beta-arrestin recruitment assay (beta-lactamase reporter, FRET), antagonism of CXCL12/SDF1-α;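 also: compounds preincubated 15 min before CXCL12 addition, then 22 h at 37 °C, FRET emission ratio read with CCF4-AM substrate after 2 h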", "assay_type": "cell-based", "conditions": "antagonistic effect on CXCR7, Tango CXCR7-bla U2OS cells, CXCL12/SDF1-α at its EC80"}
{"compound": "CC(NC(=O)[C@H]1CN(CC2CC2)CC[C@@H]1NC(=O)c1cc(-c2ccc(F)cc2F)on1)c1ncccn1", "note": "(stereo partly drawn) [Example 4.080a]", "values": [{"measurement": "IC50", "value": 851, "unit": "nM"}]}
{"compound": "C[C@@H](NC(=O)[C@@H]1CN(C2CCCCC2)CC[C@H]1NC(=O)c1cc(-c2ccc(F)cc2F)on1)C1CCC1", "note": "[Example 4.009]", "values": [{"measurement": "IC50", "value": 573, "unit": "nM"}]}
{"compound": "CC(NC(=O)[C@H]1CN(CC2CC2)CC[C@@H]1NC(=O)c1cc(-c2ccc(F)cc2F)on1)C1CCCO1", "note": "(stereo partly drawn) [Example 4.046]", "values": [{"measurement": "IC50", "value": 290, "unit": "nM"}]}
{"compound": "C[C@@H](NC(=O)[C@H]1CN(C2CCC2)CC[C@@H]1NC(=O)c1cc(-c2ccc(F)cc2F)on1)c1ncccn1", "note": "[Example 4.084]", "values": [{"measurement": "IC50", "value": 232, "unit": "nM"}]}
{"compound": "O=C(N[C@@H]1CCN(C2CCCCC2)C[C@H]1C(=O)NC1(c2ccc(F)cn2)CC1)c1cc(-c2c(F)cc(F)cc2F)on1", "note": "(racemic) [Example 1.143, rac-(3R*,4R*)-1-Cyclohexyl-4-{[5-(2,4,6-trifluoro-phenyl)-isoxazole-3-carbonyl]-amino}-piperidine-3-carboxylic acid [1-(5-fluoro-pyridin-2-yl)-cyclopropyl]-amide]", "values": [{"measurement": "IC50", "value": 719, "unit": "nM"}]}
{"compound": "CN(C)C(=O)[C@@H]1CN(C2CCCC2)CC[C@H]1NC(=O)c1cc(-c2ccc(F)cc2F)on1", "note": "[Example 2.019a]", "values": [{"measurement": "IC50", "value": 44, "unit": "nM"}]}
{"compound": "O=C(N[C@H]1CCN(CC2CC2)C[C@@H]1C(=O)N1CC[C@@H]1c1ncccn1)c1cc(-c2ccc(F)cc2F)on1", "note": "[Example 4.079a]", "values": [{"measurement": "IC50", "value": 186, "unit": "nM"}]}
{"compound": "O=C(N[C@H]1CCN(CC2CC2)C[C@@H]1C(=O)NC1(c2cccc(Cl)c2)CC1)c1cc(-c2ccc(F)cc2F)on1", "note": "[Example 4.068]", "values": [{"measurement": "IC50", "value": 1, "unit": "nM"}]}
{"compound": "O=C(N[C@@H]1CCN(CC2CC2)C[C@H]1C(=O)NC1(c2ncccn2)CC1)c1cc(-c2c(F)cc(F)cc2F)on1", "note": "(single isomer, unassigned) [Example 30.20b, (3R*,4R*)-1-Cyclopropylmethyl-4-{[5-(2,4,6-trifluoro-phenyl)-isoxazole-3-carbonyl]-amino}-piperidine-3-carboxylic acid (1-pyrimidin-2-yl-cyclopropyl)-amide]", "values": [{"measurement": "IC50", "value": 4, "unit": "nM"}]}
{"compound": "C[C@@H](NC(=O)[C@@H]1CN(CC2CC2)CC[C@H]1NC(=O)c1cc(-c2ccc(F)cc2F)no1)c1cnccn1", "note": "(relative stereo) [Example 1.159, (3R*,4R*)-1-Cyclopropylmethyl-4-{[3-(2,4-difluoro-phenyl)-isoxazole-5-carbonyl]-amino}-piperidine-3-carboxylic acid ((R)-1-pyrazin-2-yl-ethyl)-amide]", "values": [{"measurement": "IC50", "value": 818, "unit": "nM"}]}
{"compound": "O=C(N[C@H]1CCNC[C@@H]1C(=O)NC1(c2ncccn2)CC1)c1nnc(-c2ccc(F)cc2F)s1", "note": "[Example 2.104]", "values": [{"measurement": "IC50", "value": 195, "unit": "nM"}]}
{"compound": "C[C@@H](NC(=O)[C@@H]1CN(C2CCCC2)CC[C@H]1NC(=O)c1cc(-c2c(F)cc(F)cc2F)on1)c1ccccn1", "note": "(single isomer, unassigned) [Example 1.122a, (3R*,4R*)-1-Cyclopentyl-4-{[5-(2,4,6-trifluoro-phenyl)-isoxazole-3-carbonyl]-amino}-piperidine-3-carboxylic acid ((R)-1-pyridin-2-yl-ethyl)-amide]", "values": [{"measurement": "IC50", "value": 525, "unit": "nM"}]}
{"compound": "(3R*,4R*)-1-Cyclopentyl-4-{[3-(2,4-difluoro-phenyl)-isoxazole-5-carbonyl]-amino}-piperidine-3-carboxylic acid ((1S*,2R*)-2-phenyl-cyclopropyl)-amide and (3R*,4R*)-1-Cyclopentyl-4-{[3-(2,4-difluoro-phenyl)-isoxazole-5-carbonyl]-amino}-piperidine-3-carboxylic acid ((1R*,2S*)-2-phenyl-cyclopropyl)-amide [Example 1.148]", "values": [{"measurement": "IC50", "value": 769, "unit": "nM"}]}
{"compound": "O=C(N[C@@H]1CCN(C2CCCC2)C[C@H]1C(=O)NC1(c2ccccn2)CC1)c1cn(-c2ccc(F)cc2F)nn1", "note": "(racemic) [Example 1.166, rac-(3R*,4R*)-1-Cyclopentyl-4-{[1-(2,4-difluoro-phenyl)-1H-[1,2,3]triazole-4-carbonyl]-amino}-piperidine-3-carboxylic acid (1-pyridin-2-yl-cyclopropyl)-amide]", "values": [{"measurement": "IC50", "value": 52, "unit": "nM"}]}
{"compound": "C[C@@H](NC(=O)[C@@H]1CN(C2CCCCC2)CC[C@H]1NC(=O)c1noc(-c2ccc(F)cc2F)n1)c1ccccn1", "note": "(relative stereo) [Example 1.156, (3R*,4R*)-1-Cyclohexyl-4-{[5-(2,4-difluoro-phenyl)-[1,2,4]oxadiazole-3-carbonyl]-amino}-piperidine-3-carboxylic acid ((R)-1-pyridin-2-yl-ethyl)-amide]", "values": [{"measurement": "IC50", "value": 92, "unit": "nM"}]}
{"compound": "Cc1cccc([C@@H](C)NC(=O)[C@@H]2CN(C3CCCCC3)CC[C@H]2NC(=O)c2cc(-c3ccc(F)cc3F)on2)n1", "note": "(single isomer, unassigned) [Example 1.188b, (3R*,4R*)-1-Cyclohexyl-4-{[5-(2,4-difluoro-phenyl)-isoxazole-3-carbonyl]-amino}-piperidine-3-carboxylic acid [(R)-1-(6-methyl-pyridin-2-yl)-ethyl]-amide]", "values": [{"measurement": "IC50", "value": 519, "unit": "nM"}]}
{"compound": "CC(C)(C)N1CC[C@@H](NC(=O)c2cc(-c3ccc(F)cc3F)on2)[C@H](C(=O)NC2(c3ncccn3)CC2)C1", "note": "[Example 4.101]", "values": [{"measurement": "IC50", "value": 71, "unit": "nM"}]}
{"compound": "O=C(N[C@@H]1CCN(C2CCCCC2)C[C@H]1C(=O)NC[C@@H](O)c1ccccc1)c1cc(-c2ccc(F)cc2F)on1", "note": "(relative stereo) [Example 1.073, (3R*,4R*)-1-Cyclohexyl-4-{[5-(2,4-difluoro-phenyl)-isoxazole-3-carbonyl]-amino}-piperidine-3-carboxylic acid ((S)-2-hydroxy-2-phenyl-ethyl)-amide]", "values": [{"measurement": "IC50", "value": 118, "unit": "nM"}]}
{"compound": "CCN1CC[C@@H](NC(=O)c2cc(-c3ccc(F)cc3F)on2)[C@H](C(=O)N(C)CCc2ccccc2)C1", "note": "[Example 2.004]", "values": [{"measurement": "IC50", "value": 118, "unit": "nM"}]}
{"compound": "O=C(N[C@@H]1CCN(CC2CC2)C[C@H]1C(=O)NC1(c2ncccn2)CC1)c1cc(-c2ccc(F)cn2)on1", "note": "(racemic) [Example 1.196, rac-(3R*,4R*)-1-Cyclopropylmethyl-4-{[5-(5-fluoro-pyridin-2-yl)-isoxazole-3-carbonyl]-amino}-piperidine-3-carboxylic acid (1-pyrimidin-2-yl-cyclopropyl)-amide]", "values": [{"measurement": "IC50", "value": 575, "unit": "nM"}]}
{"compound": "CCOC(=O)C1(NC(=O)[C@H]2CN(CC3CC3)CC[C@@H]2NC(=O)c2cc(-c3ccc(F)cc3F)on2)CC1", "note": "[Example 4.056]", "values": [{"measurement": "IC50", "value": 64, "unit": "nM"}]}
{"compound": "Cc1nc(CNC(=O)[C@@H]2CN(C3CCCCC3)CC[C@H]2NC(=O)c2cc(-c3ccc(F)cc3F)on2)cs1", "note": "(racemic) [Example 1.031, rac-(3R*,4R*)-1-Cyclohexyl-4-{[5-(2,4-difluoro-phenyl)-isoxazole-3-carbonyl]-amino}-piperidine-3-carboxylic acid (2-methyl-thiazol-4-ylmethyl)-amide]", "values": [{"measurement": "IC50", "value": 855, "unit": "nM"}]}
{"compound": "COCC(C)(C)NC(=O)[C@@H]1CN(CC2CC2)CC[C@H]1NC(=O)c1cn(-c2ccc(F)cc2F)nn1", "note": "[Example 1.11]", "values": [{"measurement": "IC50", "value": 535, "unit": "nM"}]}
{"compound": "O=C(N[C@@H]1CCN(C2CCCCC2)C[C@H]1C(=O)NC1CCCC1)c1cc(-c2ccc(F)cc2F)on1", "note": "(racemic) [Example 1.003, rac-(3R*,4R*)-1-Cyclohexyl-4-{[5-(2,4-difluoro-phenyl)-isoxazole-3-carbonyl]-amino}-piperidine-3-carboxylic acid cyclopentylamide]", "values": [{"measurement": "IC50", "value": 564, "unit": "nM"}]}
{"compound": "CC(NC(=O)[C@@H]1CN(C2CCCCC2)CC[C@H]1NC(=O)c1cc(-c2ccc(F)cc2F)on1)C1CCC1", "note": "(relative stereo) [Example 1.078, (3R*,4R*)-1-Cyclohexyl-4-{[5-(2,4-difluoro-phenyl)-isoxazole-3-carbonyl]-amino}-piperidine-3-carboxylic acid ((1RS)-1-cyclobutyl-ethyl)-amide]", "values": [{"measurement": "IC50", "value": 193, "unit": "nM"}]}
{"compound": "O=C(N[C@@H]1CCN(C2CCC2)C[C@H]1C(=O)NC1(Cc2ccccc2)COC1)c1cc(-c2ccc(F)cc2F)on1", "note": "[Example 4.085]", "values": [{"measurement": "IC50", "value": 61, "unit": "nM"}]}
{"compound": "COCC(C)(C)NC(=O)[C@@H]1CN([C@@H]2CCC[C@H]2C)CC[C@H]1NC(=O)c1cc(-c2c(F)cc(F)cc2F)on1", "note": "(relative stereo) [Example 1.114, (3R*,4R*)-1-((1RS,2RS)-2-Methyl-cyclopentyl)-4-{[5-(2,4,6-trifluoro-phenyl)-isoxazole-3-carbonyl]-amino}-piperidine-3-carboxylic acid (2-methoxy-1,1-dimethyl-ethyl)-amide]", "values": [{"measurement": "IC50", "value": 626, "unit": "nM"}]}
{"compound": "C[C@@H](NC(=O)[C@@H]1CN(CC2CC2)CC[C@H]1NC(=O)c1noc(-c2ccc(F)cc2F)n1)c1ccccn1", "note": "(relative stereo) [Example 1.158, (3R*,4R*)-1-Cyclopropylmethyl-4-{[5-(2,4-difluoro-phenyl)-[1,2,4]oxadiazole-3-carbonyl]-amino}-piperidine-3-carboxylic acid ((R)-1-pyridin-2-yl-ethyl)-amide]", "values": [{"measurement": "IC50", "value": 82, "unit": "nM"}]}
{"compound": "O=C(N[C@@H]1CCN(CC2CC2)C[C@H]1C(=O)NC1(c2ncccn2)CC1)c1cc(C2CC2)on1", "note": "(single isomer, unassigned) [Reference Compound 1a, (3R,4R)-4-[(5-Cyclopropyl-isoxazole-3-carbonyl)-amino]-1-cyclopropylmethyl-piperidine-3-carboxylic acid (1-pyrimidin-2-yl-cyclopropyl)-amide or (3S,4S)-4-[(5-cyclopropyl-isoxazole-3-carbonyl)-amino]-1-cyclopropylmethyl-piperidine-3-carboxylic Acid (1-pyrimidin-2-yl-cyclopropyl)-amide, reference compound]", "values": [{"measurement": "IC50", "setting": "geometric mean", "value": "> 10000", "unit": "nM"}]}
{"compound": "Cc1nc(C(C)(C)NC(=O)[C@H]2CN(C3CCCC3)CC[C@@H]2NC(=O)c2cc(-c3ccc(F)cc3F)on2)no1", "note": "[Example 4.035]", "values": [{"measurement": "IC50", "value": 56, "unit": "nM"}]}
{"compound": "O=C(N[C@@H]1CCN([C@@H]2CCCC[C@H]2F)C[C@H]1C(=O)O)c1cc(-c2ccc(F)cc2F)on1", "note": "[Example 2.04]", "values": [{"measurement": "IC50", "value": 475, "unit": "nM"}]}
{"compound": "CC(NC(=O)[C@@H]1CN(C(C)C)CC[C@H]1NC(=O)c1cc(-c2ccc(F)cc2F)on1)c1ccccn1", "note": "(stereo partly drawn) [Example 2.007]", "values": [{"measurement": "IC50", "value": 88, "unit": "nM"}]}
{"compound": "CN(C)C(=O)[C@@H]1CN(C2CCCCC2)CC[C@H]1NC(=O)c1nc(-c2ccc(F)cc2F)no1", "note": "(racemic) [Example 3.019, rac-(3R*,4R*)-1-Cyclohexyl-4-{[3-(2,4-difluoro-phenyl)-[1,2,4]oxadiazole-5-carbonyl]-amino}-piperidine-3-carboxylic acid dimethylamide]", "values": [{"measurement": "IC50", "value": 778, "unit": "nM"}]}
